Data as given in US5476944A, “Derivatives of cyclic phenolic thioethers” (G. D. Searle & Co., priority 1994, dated 1995).

How the values were obtained:
COX-II = molecular target: T1, COX-II (Homo sapiens, UniProt P35354); test: Human Enzyme Assay, recombinant COX-II (PGE2 ELISA); format: biochemical
T1 construct: made in house; host or cells: SF9 insect cells, recombinant baculovirus (pVL1393); coding fragment from Cayman Chemical
T1 sequence (P35354 18-604): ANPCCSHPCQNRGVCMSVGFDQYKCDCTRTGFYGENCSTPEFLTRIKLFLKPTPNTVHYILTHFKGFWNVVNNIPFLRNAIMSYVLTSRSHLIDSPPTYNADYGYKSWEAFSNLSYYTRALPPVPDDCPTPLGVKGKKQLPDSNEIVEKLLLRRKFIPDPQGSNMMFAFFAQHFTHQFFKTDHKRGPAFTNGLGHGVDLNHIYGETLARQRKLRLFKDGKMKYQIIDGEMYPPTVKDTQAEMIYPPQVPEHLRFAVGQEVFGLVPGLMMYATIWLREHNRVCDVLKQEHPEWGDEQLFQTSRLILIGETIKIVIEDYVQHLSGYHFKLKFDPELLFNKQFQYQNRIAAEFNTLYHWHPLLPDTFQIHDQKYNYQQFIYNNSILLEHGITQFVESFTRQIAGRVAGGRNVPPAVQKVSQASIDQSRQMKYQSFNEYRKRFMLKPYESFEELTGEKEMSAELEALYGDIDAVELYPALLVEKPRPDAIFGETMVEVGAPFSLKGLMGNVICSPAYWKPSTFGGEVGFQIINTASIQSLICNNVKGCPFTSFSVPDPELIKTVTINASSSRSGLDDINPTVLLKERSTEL
Description: (§1) The compounds of the invention are evaluated with respect to COX-I and COX-II activity in vitro using an enzyme based assay according to the following assay procedure.
(§2) (a) Preparation of Recombinant COX Baculoviruses
(§3) A 2.0 kb fragment containing the coding region for either human or murine COX-I (Caymen Chemical, Ann Arbor, Mich.), or human or murine COX-II (Caymen Chemical, Ann Arbor, Mich.), was cloned into a BamH1 site of the baculovirus transfer vector pVL1393 (Invitrogen, Palo Alto, Calif.) to generate a baculovirus transfer vector. Recombinant baculoviruses were isolated by transfecting 4 μg of baculovirus transfer vector DNA into SF9 cells (2×10e8) (Invitrogen, Palo Alto, Calif.) along with 200 ng of linearized bacium by the phosphate method. See M. D. Summers et al., "A Manual of Methods for Baculovirus Vectors and Insect Cell Culture Procedure," TEXAS AGRICULTURE EXPERIMENTAL STATION BULLETIN, No. 1555 (1987), which is incorporated herein by reference. Recombinant viruses were purified by three rounds of plaque purification, and high titer (10e7-10e8 pfu/ml) stocks of virus were prepared. For large scale production, SF9 insect cells (Invitrogen, Palo Alto, Calif.) were infected in 10 liter fermentors (0.5×10^6 /ml) with the recombinant baculovirus stock, such that the multiplicity of infection was 0.1. After 72 hours, the cells were centrifuged and the cell pellet was homogenized in Tris/Sucrose (50 mM: 25%, pH 8.0) containing 1% CHAPS. The homogenate was centrifuged at 10,000×G for 30 minutes, and the resultant supernatant was stored at -80° C. before being assayed for COX activity.
(§4) b. Assay for COX-I and COX-II activity:
(§5) COX activity was assayed as PGE2 formed/μg protein/time using an ELISA (Caymen Chemical, Ann Arbor, Mich.) to detect the prostaglandin E2 released. CHAPS-solubilized insect cell membranes containing the appropriate COX enzyme were incubated in a potassium phosphate buffer (50 mM, pH 8.0) containing phenol (0.5 mM), and heme (1 μM) with the addition of arachidonic acid (10 μM). Compounds of the present invention were pre-incubated with the enzyme for 10-20 minutes prior to the addition of the COX-I and COX-II enzyme substrate arachidonic acid (10 μM). Any reaction between the arachidonic acid and the enzyme was stopped after ten minutes at 37° C./room temperature by transferring 40 μl of reaction mix into […] ELISA buffer and 25 μM indomethacin. The PGE2 formed was measured by standard ELISA technology (Cayman Chemical, Ann Arbor, Mich.).
(§6) The results for this assay, as well as for the next assay (COX-II Cell Fibroblast Assay) are expressed in terms of COX-I or II activity as an IC50 value (50% inhibitory concentration), as defined as the amount of prostaglandin E2 (PGE2) formed per protein per time in response to the enzyme substrate arachidonic acid.

COX-I = molecular target: T2, COX-I (Homo sapiens, UniProt P23219); test: Human Enzyme Assay, recombinant COX-I (PGE2 ELISA); format: biochemical
T2 construct: made in house; host or cells: SF9 insect cells, recombinant baculovirus (pVL1393); coding fragment from Cayman Chemical
Description: as §1, §2, §3, §4, §5, §6

cellular COX-II = molecular target: T3, cellular COX-II (Homo sapiens, UniProt P35354); test: Cellular COX-II Assay (Cell Fibroblast Assay), IL-1 stimulated human fetal dermal fibroblasts, PGE2; format: cell-based; conditions: IL-1 beta stimulated human fetal dermal fibroblasts
T3 construct: stimulated human fetal dermal fibroblasts (HFDF, derived from primary cell cultures); endogenous in cells; host or cells: human fetal dermal fibroblasts (HFDF), primary, stimulated with IL-1 beta
T3 sequence (P35354 18-604): T1 sequence (P35354 18-604)
Description: The compounds of the invention are evaluated with respect to the inhibition of cellular COX-II in vitro according to the following Cellular COX-II Assay (Cell Fibroblast Assay).
Cellular COX-II Assay (Cell Fibroblast Assay)
Inhibition of cellular COX-II by test compounds is determined using stimulated human fetal dermal fibroblasts (HFDF, derived from primary cell cultures). Fibroblasts are cultured in microtiter wells at 1.5×10^4 cells/well in Dulbecco's Modified Eagle's Media (DMEM)(Gibco/BRL, Gaithersburg, Md. Sigma Chemical Co., St. Louis, Mo.) containing 4500 mg glucose/L, 100 units penicillin G/ml and 0.1 mg streptomycin/ml, 4 mM L-glutamine, 25 mM Hepes and 10% Fetal Bovine Serum (Gibco/BRL, Gaithersburg, Md. Bioproducts For Science, Inc., Indianapolis,Ind.). Following a 3-day incubation at 37° C., the culture media is removed by aspiration using low vacuum, and the cells are stimulated overnight with medium containing human recombinant IL-1 (interleukin-1) beta (1 ng/ml)(Cistron, Pine Brook, N.J.). The next day, the fibroblasts are washed with Phosphate Buffered Saline, and 185 μl of DMEM is added to each well. The cells are placed in a 37° C. incubator for 15 minutes. Compounds are then added to the cells using seven half-log dilutions in duplicate determinations. Cells are incubated with test compounds at 37° C. for 30 minutes. The COX-II substrate arachidonic acid (20 μM; Nu-Chek-Prep Inc., Elysian, Minn.) is then added to the cell cultures and the plates are incubated for 10 minutes at 37° C. Supernatants are collected and Prostaglandin E2 (PGE2) production is measured by an enzyme-linked immunosorbent assay (ELISA; antibodies produced by Cayman Chemical Company, Ann Arbor, Mich.). […] PG,60
The following is a description of how the activities of the compounds of the present invention may be determined.
A run of this assay consists of one (or more) plates, each containing, along with the standard (in row A), (1) two wells of unstimulated material (in col. 12), (2) five wells of stimulated material (in col. 12), (3) seven wells (one per concentration) for indomethacin (in col. 11), and (4) two wells at each of seven concentrations for five test compounds, one of which is a repeat of indomethacin. The response (ng/ml Eicosanoid) is estimated from the Standard curve and is highest at low concentrations and decreases as the concentration increases. If the response is plotted on the y-axis and the log of the concentration is plotted on the x-axis, the dose-response pattern for these assays is typically a symmetrical, sigmoidal shaped curve. If a full range of concentrations is used, the complete sigmoidal curve may be seen, starting with an upper asymptote, falling at some degree of steepness, and then leveling off at a lower asymptote. The IC50 is defined as the concentration corresponding to a response midway between the upper and lower plateaus. A theoretic "dose-response" model is used to estimate the IC50.
The procedure described below was used to define the minimum and maximum responses for the compounds on a plate.
The procedure uses information for indomethacin and the rest of the plate in defining the minimum and maximum response. The justification for doing this is as follows. Enough runs have been done with indomethacin to determine and use a range of concentrations such that the response to the lowest concentrations is on the upper plateau of the sigmoidal curve and the response to the highest concentrations is on the lower plateau of the sigmoidal curve. For the other compounds, if a response is measured which is less than the response for the unstimulated wells, then this response may be considered to be another estimate of a minimal response. Likewise, if a response is measured which is greater than the response for the stimulated wells, then this response may be considered to be another estimate of a maximal response. Based on this reasoning, the minimum is estimated as follows: […]

T2 sequence (P23219 24-599): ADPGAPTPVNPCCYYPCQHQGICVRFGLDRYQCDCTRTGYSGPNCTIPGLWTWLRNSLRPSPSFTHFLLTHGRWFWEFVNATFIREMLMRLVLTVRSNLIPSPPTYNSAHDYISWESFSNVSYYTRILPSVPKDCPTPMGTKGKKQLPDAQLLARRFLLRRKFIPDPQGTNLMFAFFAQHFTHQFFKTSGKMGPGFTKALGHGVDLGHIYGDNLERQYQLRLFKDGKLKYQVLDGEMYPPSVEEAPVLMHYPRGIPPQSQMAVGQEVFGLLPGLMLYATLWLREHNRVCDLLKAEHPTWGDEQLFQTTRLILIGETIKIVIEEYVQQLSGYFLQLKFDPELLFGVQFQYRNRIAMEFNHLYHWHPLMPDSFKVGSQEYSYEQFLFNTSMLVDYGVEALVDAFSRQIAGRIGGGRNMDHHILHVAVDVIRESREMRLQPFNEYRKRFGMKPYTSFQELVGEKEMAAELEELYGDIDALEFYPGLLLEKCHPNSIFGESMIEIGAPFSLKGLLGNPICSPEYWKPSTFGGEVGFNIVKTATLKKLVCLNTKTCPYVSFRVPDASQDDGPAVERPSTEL

SMILES	IC50 (COX-II) [nM]	IC50 (COX-I) [nM]	IC50 (cellular COX-II) [nM]
CC(C)(C)c1cc(S[C@@H]2CCCC[C@H]2OCC(=O)O)cc(C(C)(C)C)c1 (single isomer, unassigned) [Example 89, (-)trans-2-[[2-[[3,5-bis(1,1-dimethylethyl)phenyl]thio]cyclohexyl]oxy]acetic acid]	3400	> 100000	576
CC(C)(C)c1cc(S[C@@H]2CCC[C@H]2OCC(=O)O)cc(C(C)(C)C)c1 (relative stereo) [Example 76, (±)trans-2-[[2-[[3,5-bis(1,1-dimethylethyl)phenyl]thio]cyclopentyl]oxy]acetic acid]	> 100000	> 100000	5590
CC(C)(C)c1ccc(S[C@@H]2CCC[C@H]2OCC(=O)O)c(C(C)(C)C)c1 (racemic) [Example 81, (±)trans-2-[[2-[[2,4-bis(1,1-dimethylethyl)phenyl]-thio]cyclopentyl]oxy]acetic acid]	1430	94600	438
CC(C)(C)c1ccc(S[C@H]2CCC[C@H]2OCC(=O)O)c(C(C)(C)C)c1 (single isomer, unassigned) [Example 97, (-)cis-2-[[2-[[2,4-bis(1,1-dimethylethyl)phenyl]thio]cyclopentyl]oxy]aceticacid]	2000	92100	227
CC(C)(C)c1cc(S[C@H]2CCC[C@H]2OCC(=O)O)cc(C(C)(C)C)c1 (single isomer, unassigned) [Example 84, (+)cis-2-[[2-[[3,5-bis(1,1-dimethylethyl)phenyl]thio]cyclopentyl]oxy]aceticacid]	3700	> 100000	420
CC(C)(C)c1ccc(O[C@@H]2CCC[C@H]2OCC(=O)O)c(C(C)(C)C)c1 (relative stereo) [Example 101, trans-2-[[2-[2,4-bis(1,1-dimethylethyl)phenoxy]cyclopentyl]oxy]acetic acid]	> 100000	> 100000	840

Second part, the compound after the results:

IC50 (COX-II) [nM]	IC50 (COX-I) [nM]	IC50 (cellular COX-II) [nM]	SMILES
5160	> 100000	170	CC(C)(C)c1cc(S[C@H]2CCC[C@H]2OCC(=O)O)cc(C(C)(C)C)c1 (relative stereo) [Example 77]
2500	–	163	CC(C)(C)c1cc(S[C@H]2CCC[C@H]2OCC(=O)O)cc(C(C)(C)C)c1 (single isomer, unassigned) [Example 85, (-)cis-2-[[2-[[3,5-bis(1,1-dimethylethyl)phenyl]thio]cyclopentyl]oxy]aceticacid]
3880	> 100000	246	CC(C)(C)c1ccc(S[C@@H]2CCC[C@H]2OCC(=O)O)c(C(C)(C)C)c1 (single isomer, unassigned) [Example 92, (+)trans-2-[[2-[[2,4-bis(1,1-dimethylethyl)phenyl]thio]cyclopentyl]oxy]acetic acid]
937	28500	602	CC(C)(C)c1ccc(S[C@H]2CCC[C@H]2OCC(=O)O)c(C(C)(C)C)c1 (racemic) [Example 80, (±)cis-2-[[2-[[2,4-bis(1,1-dimethylethyl)phenyl]thio]cyclopentyl]oxy]acetic acid]
7660	> 100000	334	CC(C)(C)c1ccc(S[C@@H]2CCC[C@H]2OCC(=O)O)c(C(C)(C)C)c1 (single isomer, unassigned) [Example 93, (-)trans-2-[[2-[[2,4-bis(1,1-dimethylethyl)phenyl]thio]cyclopentyl]oxy]acetic acid]
